Laboratory results: PMC6743424, “Phenolic acid phenethylesters and their corresponding ketones: Inhibition of 5‐lipoxygenase and stability in human blood and HepaRG cells” (Pharmacology Research & Perspectives, 2019)
Entries after “also recorded” stand apart in the source; their conditions may differ. Each block holds one compound with its values, some of them ahead of it.

Key:
5‐LO [1] = target: T1, 5‐LO (Homo sapiens, UniProt P09917); experiment: Biosynthesis of 5‐LO products in stimulated HEK293 cells expressing 5‐LO and FLAP; assay type: cell-based; parameters: expressed in transfected cells; host or cells: HEK293 cells (ATCC), stably transfected; details: 1 μmol/L, 5 min preincubation; 10 μmol/L A23187 + 10 μmol/L arachidonic acid 15 min
T1 sequence (P09917 1-674): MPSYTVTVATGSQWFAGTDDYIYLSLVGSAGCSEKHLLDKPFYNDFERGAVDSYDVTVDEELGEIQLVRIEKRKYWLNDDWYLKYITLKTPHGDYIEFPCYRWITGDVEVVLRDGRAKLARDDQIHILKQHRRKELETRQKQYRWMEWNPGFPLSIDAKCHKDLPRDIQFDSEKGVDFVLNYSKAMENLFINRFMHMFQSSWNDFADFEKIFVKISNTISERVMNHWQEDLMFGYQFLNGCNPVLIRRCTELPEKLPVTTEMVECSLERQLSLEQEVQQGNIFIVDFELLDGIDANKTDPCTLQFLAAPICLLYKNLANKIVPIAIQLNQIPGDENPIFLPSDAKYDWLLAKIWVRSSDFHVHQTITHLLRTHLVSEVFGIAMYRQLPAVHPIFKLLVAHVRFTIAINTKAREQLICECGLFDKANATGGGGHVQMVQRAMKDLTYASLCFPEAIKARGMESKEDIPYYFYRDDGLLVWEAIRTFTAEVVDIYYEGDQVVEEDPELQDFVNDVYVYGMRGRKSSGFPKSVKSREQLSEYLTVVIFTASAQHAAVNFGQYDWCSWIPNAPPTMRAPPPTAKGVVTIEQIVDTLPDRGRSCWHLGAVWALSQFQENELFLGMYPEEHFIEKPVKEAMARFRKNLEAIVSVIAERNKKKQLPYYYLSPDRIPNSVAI
Protocol: HEK293 cells were obtained from ATCC (Manassas) and were cultured in Dulbecco’s Modified Eagle Medium (DMEM) supplemented with 10% fetal bovine serum. Cells were stably transfected with 5‐lipoxygenase and 5‐lipoxygenase activating protein (FLAP) as previously described.31
Transfected HEK293 cells were collected and resuspended in Hank's balanced salt solution (HBSS, Lonza) containing 1.6 mmol/L CaCl2 at a concentration of 5 × 10^5 cells/mL, and were preincubated with each compound at concentration of 1 µmol/L for 5 minutes at 37°C. Cells were then stimulated for 15 minutes at 37°C with the addition of 10 µmol/L calcium ionophore A23187 (Sigma‐Aldrich) and 10 µmol/L arachidonic acid (Cayman Chemical).28 Stimulations were stopped by adding 0.5 volume of cold CH3OH:CH3CN (1:1) containing 100 ng/mL of prostaglandin B2 (PGB2) as internal standard. Samples were stored at −20°C and analyzed for 5‐LO products using reversed‐phase high‐performance liquid chromatography (RP‐HPLC) as described previously.32
Figure 2 The structures of the tested compounds (A) and their effects on the biosynthesis of 5‐LO products in transfected HEK293 cells (B). HEK293 cells expressing 5‐LO and FLAP were incubated in presence of the indicated compounds (1 μmol/L) or their diluent (Control, 0.1% DMSO) for 5 minutes, followed by the addition of 10 μmol/L calcium ionophore A23187 and 10 μmol/L arachidonic acid for 15 minutes. Reactions were then stopped, and samples were processed for analysis of 5‐LO products using RP‐HPLC. Total 5‐LO products measured represent the sum of LTB4, its trans isomers and 5‐hydroxyeicosatetraenoic acid. Data are expressed as means ± SEM of at least three independent experiments. *Difference from control as determined using one‐way ANOVA with Dunnett's multiple comparison test (P < .05)

5‐LO [2] = target: T1, 5‐LO; experiment: Ex vivo whole blood stimulation with opsonized zymosan, 5‐LO products; assay type: cell-based; parameters: endogenous in cells; host or cells: human polymorphonuclear leukocytes isolated from heparinized blood; details: 5‐LO product biosynthesis in whole blood, mean (95% confidence interval)
Protocol: Blood was collected in tubes containing heparin as anticoagulant. Test compounds or their diluent control (DMSO, 0.1%) were added to 1 mL of heparinized blood at the indicated concentrations and incubated for 5 minutes in a water bath at 37°C. Stimulation was initiated with the addition of 125 μL of 40 mg/mL of opsonized zymosan, samples were then gently vortexed and incubated at 37°C for 30 minutes.34 Samples were then centrifuged at 960g for 10 minutes at 4°C, plasma was removed and added to tubes containing 4 volumes of CH3OH:CH3CN (1:1) containing 100 ng/mL of PGB2 as internal standard. Samples were stored overnight at −20°C, and then centrifuged at 3300g for 10 minutes. Samples were then purified on C18 cartridges, were eluted with CH3OH, dried under nitrogen, resuspended in 46% of CH3OH:CH3CN (1:1), and analyzed using RP‐HPLC as described above.

HepaRG cells [3] = experiment: Residual inhibition of 5‐LO product biosynthesis in blood after incubation with HepaRG cells; assay type: in vitro ADME, human; details: 50 µmol/L with HepaRG cells, after 60 minutes; medium added to blood, zymosan, LTB4
Protocol: (§1) Differentiated HepaRG cells, plated in 24 well plates, were washed with hepatocyte suspension medium (Williams E‐medium without phenol red, supplemented with 2 mmol/L Glutamax and […] HEPES) before addition of hepatocyte suspension medium (250 µL/well) containing (30 or 50 µmol/L) of the test compounds or their diluent. Cells were then incubated for 7.5, 15, 30, 60 or 90 minutes at 37°C after which the medium was removed.
In experiments where the inhibitory capacity of test compounds was to be determined after incubation with HepaRG cells, 125 µL of the hepatocyte suspension medium containing test compounds that had been collected at different time points from HepaRG cultures was added to 1 mL of heparinized blood. After a 5 minutes of preincubation, blood was then stimulated with opsonized zymosan and processed for HPLC analysis of 5‐LO metabolites as described above.
Figure 6 Stability of the test compounds for the inhibition of the biosynthesis of 5‐LO products following incubation with HepaRG cells. HepaRG cells were incubated with […] of hepatocyte suspension medium containing 50 µmol/L of test compounds for the indicated times at 37°C. Hepatocyte suspension medium (125 µL) was then removed and added to 1 mL of blood that was then incubated for 5 minutes and then stimulated with opsonized zymosan (4 mg/mL) for 30 minutes at 37°C. Blood was then centrifuged and plasma was collected and added to 1.2 mL of CH3OH:CH3CN (1:1). Samples were processed for analysis using RP‐HPLC for LTB4 quantification. Data are expressed as means ± SEM of at least three independent experiments. *Difference from time = 0, as determined using One‐way ANOVA with Dunnett's multiple comparison test (P < .05)

HepaRG cells [4] = experiment: Kinetics of test compound disappearance in HepaRG cell culture (HPLC); assay type: in vitro ADME, human; details: 30 µmol/L, 37°C; mean (95% confidence interval), four experiments
Protocol: Undifferentiated cryopreserved HepaRG cells (BioPredic International) were seeded in 12 or 24 well plates at 1.1 × 10^5 and 0.55 × 10^5 cells per well, respectively. Cells were cultured for 14 days in Williams E‐medium supplemented with 1% penicillin‐streptomycin (10 000 U/mL), 10% fœtal bovine serum (FBS), 50 mg/L hydrocortisone hemisuccinate, 5 mg/L insulin and 2 mmol/L Glutamax, and the medium was renewed every 2‐3 days. After 14 days, the culture medium was replaced by the same formulation as above supplemented with 2% dimethyl sulfoxide (DMSO) to induce differentiation. Cells were considered differentiated and ready for experiments after 14 days of differentiation (28 days after seeding).
as §1
In experiments where the test compounds incubated with HepaRG cells were to be measured, the cell layer was washed with 250 µL of hepatocyte suspension medium which was then pooled with the first medium. The mixture was then added to 250 µL of ice cold CH3OH:CH3CN (1:1, vol:vol) containing 10 µmol/L of phenethyl 3,4,5‐trimethoxycinnamate as an internal standard. The resulting solution was frozen at −80°C for 2 hour to precipitate any dissolved proteins, centrifuged at 1800g and the supernatant transferred to vials and stored at −20°C until HPLC analysis.
Figure 5 Kinetics of test compound disappearance in HepaRG cell culture. (A) HepaRG cells were incubated in 250 µL of hepatocyte suspension medium containing 30 µmol/L of test compounds for the indicated times at 37°C. Supernatants were removed and added to 250 µL of ice cold CH3OH:CH3CN (1:1 vol:vol) containing 10 µmol/L of phenethyl 3,4,5‐trimethoxycinnamate as an internal standard. The cell layer was washed with 250 µL of hepatocyte suspension medium and added to the above mixture. Samples were centrifuged at 1900g and the supernatants were collected for HPLC analysis as described in the Methods. Values are means ± SEM. (B) Calculated half‐lives of the test compounds in HepaRG cell cultures. Values are means (95% confidence interval). All data are from four independent experiments TEXT PRINTED IN THE PICTURE: (B) CAPE (2): Half-life (Minutes): 4.70 (4.42 - 5.02) | (B) 7: Half-life (Minutes): 6.42 (5.72 -7.31) | (B) 5: Half-life (Minutes): 3.71 (3.67-3.74) | (B) 8: Half-life (Minutes): 6.48 (6.01-7.04) | (B) 9: Half-life (Minutes): 4.38 (4.23 - 4.55) | (B) 10: Half-life (Minutes): 11.32 (10.21- 12.71)

5‐LO [5] = target: T1, 5‐LO; experiment: Biosynthesis of 5‐LO products in thapsigargin‐stimulated human PMNL; assay type: cell-based; parameters: endogenous in cells; host or cells: human polymorphonuclear leukocytes isolated from heparinized blood; details: 5‐LO product biosynthesis in human PMNL; mean (95% confidence interval)
Protocol: Heparinized blood (see Ethics statement) was collected, centrifuged at 200g for 10 minutes to collect plasma, and erythrocytes were sedimented in dextran. PMNL were obtained after centrifugation on a lymphocyte separation medium cushion (density, 1.077 g/mL) (Wisent) at 900 g for 20 minutes, followed by hypotonic lysis to remove residual erythrocytes.33 PMNL were counted and resuspended at 10^7 cells/mL in HBSS supplemented with 1.6 mmol/L CaCl2 and 0.3 U/mL adenosine deaminase (Sigma‐Aldrich). PMNL were preincubated with the test compounds or their diluent (0.1% DMSO) for 5 minutes at 37°C and were then stimulated with 1 µmol/L thapsigargin (Sigma‐Aldrich) for 15 minutes at 37°C.27 Reactions were stopped by adding two volumes of CH3OH:CH3CN (1:1) containing the internal standard PGB2 (100 ng/mL), and samples were processed for RP‐HPLC analysis of 5‐LO products.
(A) The structures of CAPE (2) and its analogues investigated in this study. (B) Isolated human PMNL were incubated in presence of test compounds (1 μmol/L) or their diluent (Control, 0.1% DMSO) for 5 minutes. PMNL were stimulated with 1 μmol/L of thapsigargin for 15 minutes at 37°C. The stimulation was then stopped, and samples were processed for analysis of 5‐LO products using RP‐HPLC. Total 5‐LO products measured represent LTB4, its trans isomers, 20‐OH‐LTB4, 20‐COOH‐LTB4 and 5‐hydroxyeicosatetraenoic acid. Data are expressed as means ± SEM of at least three independent experiments. *Difference from control, as determined using one‐way ANOVA with Dunnett's multiple comparison test (P < .05)

5‐LO [6] = details: cited from earlier work

Inhibition of biosynthesis of 5‐LO products in transfected HEK293 cells (5‐LO [1]): very good inhibitory activity
SMILES: O=C(/C=C/c1cccc(O)c1O)OCCc1ccccc1 [compound 3]

IC50 (5‐LO [2]): 1910 nM | Inhibitory activity against 5‐LO product biosynthesis after incubation with HepaRG cells (HepaRG cells [3]): lost all their inhibitory activity | Half-life in HepaRG cell cultures (HepaRG cells [4]): 4.38 (4.23 - 4.55) Minutes | IC50 (5‐LO [5]): 290 nM
SMILES: COc1cc(/C=C/C(=O)OCCc2ccccc2)cc(OC)c1O [compound 9, sinapic acid phenethylester]

SMILES: O=C(C=Cc1ccc(O)c(O)c1)NCCc1ccccc1 [amide analogue of CAPE]
Inhibition of LT biosynthesis and 5‐LO activity (5‐LO [6]): reduced potency compared to CAPE

Inhibitory activity against 5‐LO product biosynthesis after incubation with HepaRG cells (HepaRG cells [3]): steady manner over time | Inhibition of biosynthesis of 5‐LO products in transfected HEK293 cells (5‐LO [1]): less effective than CAPE (2)
SMILES: CC(c1cc2ccccc2s1)N(O)C(N)=O (stereo not shown) [Zileuton (1), Zileuton, reference compound]

SMILES: O=C(C=Cc1ccccc1)OCCc1ccccc1 [cinnamic acid phenethyl ester]
Inhibition of LT biosynthesis (5‐LO [6]; at concentrations up to 10 µmol/L): do not inhibit LT biosynthesis

SMILES: O=C(/C=C/c1cc(O)cc(O)c1)OCCc1ccccc1 [compound 6]
Inhibition of biosynthesis of 5‐LO products in transfected HEK293 cells (5‐LO [1]): without measurable effect; also recorded: without inhibitory activity

SMILES: O=C(O)/C=C/c1ccc(O)c(O)c1 [caffeic acid]
Inhibition of LT biosynthesis and 5‐LO activity (5‐LO [6]): poor 5‐LO inhibitor

SMILES: O=C(CCc1ccc(O)c(O)c1)OCCc1ccccc1 [saturated form of CAPE (2)]
Inhibition of 5‐LO product biosynthesis (5‐LO [6]): as effective

SMILES: O=C(/C=C/c1ccc(O)cc1O)OCCc1ccccc1 [compound 4]
Inhibition of biosynthesis of 5‐LO products in transfected HEK293 cells (5‐LO [1]): without measurable effect; also recorded: without inhibitory activity
